Results on eleven molecules are retold here after patent US20150184166A1 (Uinversity of Iowa Research Foundation, priority 2012, published 2015).

Where “and” joins values, the source holds several entries; their conditions need not be identical. Equal values may be shown once. Read-outs that look alike come from different tables or passages of the source.

One data set addresses NdmB-His6 (Pseudomonas putida, UniProt H9N290). In words: Kinetic parameters of NdmB-His6 with His6-NdmD. The format is biochemical, Pseudomonas putida CBB5. To be noted: for Km / kcat: NdmB-His6 plus His6-NdmD, pH 7.5, 30° C. The protocol:
(§1) Methylxanthine N-demethylase activity assay contained, in 1-ml total volume, 0.5 mM methylxanthine, 1 mM NADH, 50 μM Fe(NH4)2(SO4)2, and an appropriate amount of NdmA-His6 or NdmB-His6 (7.4 μg-2.5 mg protein depending on substrate specificity) in 50 mM KPi buffer (pH 7.5). Approximately 4 U of partially purified reductase, prepared as described previously (Summers et al., 2011) or 59 U of purified His6-NdmD was added to reaction mixture. Catalase from bovine liver (4,000 U) was also added to reactions containing His6-NdmD. The reaction mixture was incubated at 30° C. with 300 rpm shaking on an incubating microplate shaker (VWR, Radnor, Pa.). Periodically, a small aliquot was sampled from the reaction mixture and mixed with equal volume of acetonitrile for quantifying concentrations of methylxanthines and N-demethylated products by HPLC. One unit of N-demethylase activity was defined as the consumption of one […] methylxanthine per minute.
(§2) Apparent kinetic parameters of NdmA-His6 and NdmB-His6 were determined by measuring the initial rate of disappearance (vo) of methylxanthines in 50 mM KPi buffer (pH 7.5) at 30° C. The initial substrate concentrations ([S]) used in these experiments were from 25 to 500 μM. Substrates were incubated with His6-NdmD plus either NdmA-His6 or NdmB-His6 under standard conditions for 15 minutes. At 1, 5, 10, and 15 minutes, samples were removed from the reaction mixtures to quantitate substrate concentrations by HPLC. Plots of substrate concentrations against time were used to determine the initial rates of disappearance of substrates which were linear over 15 minutes. The apparent kinetic parameters were determined from Michaelis-Menten plots of vo against [S] fitted with the equation

For a further data set, the target named is T1, NdmA-His6 (Pseudomonas putida, UniProt H9N289).
T1 sequence (H9N289 1-351): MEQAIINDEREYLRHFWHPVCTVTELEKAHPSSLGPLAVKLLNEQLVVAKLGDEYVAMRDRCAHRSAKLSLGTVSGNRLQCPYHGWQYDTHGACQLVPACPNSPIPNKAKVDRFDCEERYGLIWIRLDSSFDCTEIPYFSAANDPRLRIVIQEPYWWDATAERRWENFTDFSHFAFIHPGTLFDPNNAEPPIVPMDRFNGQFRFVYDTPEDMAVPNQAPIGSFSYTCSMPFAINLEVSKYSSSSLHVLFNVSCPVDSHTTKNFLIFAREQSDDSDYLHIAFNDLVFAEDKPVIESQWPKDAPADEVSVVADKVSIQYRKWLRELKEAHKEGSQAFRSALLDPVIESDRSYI
In words: Kinetic parameters of NdmA-His6 with His6-NdmD. It is filed as biochemical, Pseudomonas putida CBB5. Conditions: for kcat / Km: NdmA-His6 plus His6-NdmD, pH 7.5, 30° C. The protocol:
as §1, §2

Data set [1] has as its target Ndm (methylxanthine N-demethylase) with Ccr reductase (Pseudomonas putida, UniProt H9N289+H9N290). Conditions: for O-demethylation by Ndm: prolonged incubation.
Data set [2] deals with Ndm (methylxanthine N-demethylase) with Ccr reductase.
For the next data set, the system named is NdmC. Briefly: N-demethylation by NdmC fraction co-purified with reductase. It is filed as biochemical, Pseudomonas putida CBB5. An excerpt: This activity was neither associated with NdmA nor with NdmB. […] Cloning of NdmC has proven difficult; nevertheless based on the fact that purified His6-NdmD had no activity on 7-methylxanthine, we annotate orf 8 as aanother RO with highly specific N-7 demthylase activity.

Data set [3] relates to cell extracts of P. putida CBB5. In words: NADH-dependent N-demethylase activity of CBB5 cell extracts. It is filed as biochemical, Pseudomonas putida CBB5. To be noted: 0.5 mM substrate, 7.2 mg mL^−1 protein.
Data set [4] deals with T2, Caffeine dehydrogenase (Cdh) (Pseudomonas sp., UniProt D7REY3).
T2 sequence (D7REY3 1-791): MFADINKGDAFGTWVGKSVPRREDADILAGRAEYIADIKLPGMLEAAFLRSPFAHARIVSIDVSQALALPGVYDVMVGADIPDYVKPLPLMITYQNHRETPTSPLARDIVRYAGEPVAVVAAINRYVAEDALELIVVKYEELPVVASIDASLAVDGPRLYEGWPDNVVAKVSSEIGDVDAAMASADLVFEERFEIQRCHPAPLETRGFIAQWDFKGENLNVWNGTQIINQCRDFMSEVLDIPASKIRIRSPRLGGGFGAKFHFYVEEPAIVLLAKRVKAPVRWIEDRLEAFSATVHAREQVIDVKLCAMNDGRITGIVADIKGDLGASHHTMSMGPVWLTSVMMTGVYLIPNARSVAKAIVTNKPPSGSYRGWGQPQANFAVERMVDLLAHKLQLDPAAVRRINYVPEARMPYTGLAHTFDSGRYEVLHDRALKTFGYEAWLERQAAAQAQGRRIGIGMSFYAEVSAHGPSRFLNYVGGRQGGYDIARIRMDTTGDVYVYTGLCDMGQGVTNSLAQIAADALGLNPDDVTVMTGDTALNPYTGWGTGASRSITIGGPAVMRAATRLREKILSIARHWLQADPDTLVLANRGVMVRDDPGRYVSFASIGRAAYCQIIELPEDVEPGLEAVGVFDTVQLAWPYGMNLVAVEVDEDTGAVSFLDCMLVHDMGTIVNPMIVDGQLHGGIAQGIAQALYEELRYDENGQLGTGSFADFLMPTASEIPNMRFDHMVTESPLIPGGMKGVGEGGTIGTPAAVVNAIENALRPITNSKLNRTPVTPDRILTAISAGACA
T2 sequence (D7REY4 1-295 partner): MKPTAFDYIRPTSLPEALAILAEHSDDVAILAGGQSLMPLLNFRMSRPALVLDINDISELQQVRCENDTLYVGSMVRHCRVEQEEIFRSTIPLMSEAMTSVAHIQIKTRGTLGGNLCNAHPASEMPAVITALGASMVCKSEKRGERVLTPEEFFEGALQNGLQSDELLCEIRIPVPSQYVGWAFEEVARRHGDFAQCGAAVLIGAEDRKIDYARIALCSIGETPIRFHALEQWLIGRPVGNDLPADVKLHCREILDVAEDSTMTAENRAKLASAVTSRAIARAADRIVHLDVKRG
T2 sequence (D7REY5 1-167 partner): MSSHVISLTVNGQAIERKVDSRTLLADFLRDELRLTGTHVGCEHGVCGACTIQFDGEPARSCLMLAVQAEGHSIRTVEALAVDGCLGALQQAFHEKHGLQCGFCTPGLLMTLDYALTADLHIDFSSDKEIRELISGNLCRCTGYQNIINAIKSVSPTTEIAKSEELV
To be noted: cited from earlier work.

Data set [5] addresses T3, Ndm, two-subunit N-demethylase component purified from Pseudomonas putida CBB5, H9N289.
T3 chain 1: T1 sequence (H9N289 1-351)
T3 chain 2: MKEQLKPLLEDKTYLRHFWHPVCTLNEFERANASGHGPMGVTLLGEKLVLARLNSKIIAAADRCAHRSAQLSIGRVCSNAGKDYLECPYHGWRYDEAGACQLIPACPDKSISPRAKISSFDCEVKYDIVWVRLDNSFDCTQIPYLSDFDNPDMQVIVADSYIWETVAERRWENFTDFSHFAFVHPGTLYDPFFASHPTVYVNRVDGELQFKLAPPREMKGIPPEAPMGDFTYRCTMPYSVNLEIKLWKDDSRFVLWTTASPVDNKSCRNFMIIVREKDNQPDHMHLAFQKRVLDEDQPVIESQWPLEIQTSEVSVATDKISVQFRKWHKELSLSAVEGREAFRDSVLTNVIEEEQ

Usually Km stands for the substrate concentration at which the rate is half of its maximum. The kcat is the number of substrate molecules converted per active site and unit of time at saturation.

With `Cn1c(=O)[nH]c2nc[nH]c2c1=O` [1-methylxanthine], the “N-demethylation activity of NdmB” value at NdmB-His6 is given as “no activity”. The values for the Km result on NdmB-His6 and on NdmA-His6 (read-out: Km) were “∞” and 267 µM, respectively. Also, the kcat at NdmA-His6 is 0.26 s⁻¹.

For `Cn1c(=O)[nH]c2ncn(C)c2c1=O` [Paraxanthine, 1,7-dimethylxanthine], the “N-demethylation activity of NdmB” value on NdmB-His6 is given as “no activity”. Moreover, the Km entry at NdmB-His6 is “∞”; in data set [2] (read-out: apparent KM, saturating Ccr, 50 μM Fe2+, 30° C., 50 mM KPi pH 7.5), 50.4 ± 6.8 µM; on NdmA-His6 (read-out: Km), 52.9 µM. In addition, the “paraxanthine N-demethylated” value in data set [1] (after 13 minutes, 100 μM paraxanthine, 0.2 mg Ndm, 4 U Ccr) was 60.2 µM. Further, in data set [2] (saturating Ccr, 50 μM Fe2+, 30° C., 50 mM KPi pH 7.5), the apparent kcat is 0.27 ± 0.01 s⁻¹. For the same molecule, the kcat at NdmA-His6 came out at 2.215 s⁻¹. In addition, the “N-demethylation by NdmC/reductase fraction” value in the data set with NdmC is given as “not N-demethylated”. Besides, the “time to complete utilization” value in data set [3] (0.5 mM NADH) was “about 20 minutes”.

In the case of `COc1cc(C=O)ccc1O` [vanillin], the “O-demethylation by Ndm” value in data set [1] is reported as “did not catalyze O-demethylation”.

As for `O=c1[nH]c(=O)c2[nH]cnc2[nH]1` [xanthine], in data set [2] (90 minutes, 7.4 mU (7.4 units) of Ndm), the “product formed from paraxanthine” value is 193.7 ± 4.0 µM and 193.7 ± 14.0 µM. The N-demethylation product present in data set [2] (from paraxanthine, after 13 minutes) is around 20.3 µM. Moreover, in data set [4], the “activity of Cdh” value was “no activity” and the “activity of Cdh in substrate specificity study” value is “none”.

Consider `Cn1cnc2c1c(=O)[nH]c(=O)n2C` [Theobromine, 3,7-dimethylxanthine], for which the kcat on NdmB-His6 was determined as 0.772 s⁻¹. Also, the Km on NdmB-His6 (read-out: Km) was determined as 25.3 µM. For the same molecule, on NdmA-His6, the “N-demethylation activity of NdmA” value is “inactive” and the Km entry was “∞”. In the data set on NdmC, the “N-demethylation by NdmC/reductase fraction” value is “not N-demethylated”. Further, in data set [3], the “degradation rate compared with paraxanthine” value was “significantly slower”. The “Preference as a substrate, times less than caffeine” value in data set [4] is recorded as 50 times.

In the case of `Cn1c(=O)[nH]c(=O)c2[nH]cnc21` [3-Methylxanthine, 3-methylxanthine], the kcat at NdmB-His6 was found to be 0.528 s⁻¹. Moreover, at NdmB-His6 (read-out: Km), the Km was 22.4 µM. On NdmA-His6, the “N-demethylation activity of NdmA” value is “inactive” and the Km entry is “∞”.

For `COc1cc(C(=O)O)ccc1O` [vanillate], the “O-demethylation by Ndm” value in data set [1] is “did not catalyze O-demethylation”.

Turning to `Cn1c(=O)c2[nH]cnc2n(C)c1=O` [Theophylline, 1,3-dimethylxanthine], at NdmB-His6, the kcat was 0.0045 s⁻¹. Further, at NdmB-His6 (read-out: Km), the Km is 169 µM. Also, the “degradation rate compared with paraxanthine” value in data set [3] is “significantly slower”. In data set [4], the “activity of Cdh” value is recorded as “no activity” and the “activity of Cdh in substrate specificity study” value is 5%.

Take `Cn1c(=O)c2c(ncn2C)n(C)c1=O` [Caffeine, 1,3,7-trimethylxanthine]: the kcat stood at 0.00383 s⁻¹ at NdmB-His6 and 3.205 s⁻¹ at NdmA-His6. Moreover, the Km was 41.7 µM on NdmB-His6 (read-out: Km); 37.6 µM at NdmA-His6 (read-out: Km); 3.7 ± 0.9 µM in data set [4] (Yu et al., 2008). Besides, in the data set with NdmC, the “N-demethylation by NdmC/reductase fraction” value was “not N-demethylated”. Further, the “degradation rate compared with paraxanthine” value in data set [3] is given as “significantly slower”.

B1: Reductase component of Pseudomonas sp. 9816 naphthalene dioxygenase (protein)
chain: MELLIQPNNRIIPFSAGANLLEVLRENGVAISYSCLSGRCGTCRCRVIDGSVIDSGAENGQSNLTDKQYVLACQSVLTGNCAIEVPEADEIVTHPARIIKGTVVAVESPTHDIRRLRVRLSKPFEFSPGQYATLQFSPEHARPYSMAGLPDDQEMEFHIRKVPGGRVTEYVFEHVREGTSIKLSGPLGTAYLRQKHTGPMLCVGGGTGLAPVLSIVRGALKSGMTNPILLYFGVRSQQDLYDAERLHKLAADHPQLTVHTVIATGPINEGQRAGLITDVIEKDILSLAGWRAYLCGAPAMVEALCTVTKHLGISPEHIYADAFYPGGI
With B1, the N-demethylase activity entry in data set [5] was “Ndm did not function in the presence of the reductase and ferredoxin components of Pseudomonas sp. 9816 naphthalene dioxygenase”.

B2: Spinach ferredoxin reductase (protein)
chain: QIASDVEAPPPAPAKVEKHSKKMEEGITVNKFKPKTPYVGRCLLNTKITGDDAPGETWHMVFSHEGEIPYREGQSVGVIPDGEDKNGKPHKLRLYSIASSALGDFGDAKSVSLCVKRLIYTNDAGETIKGVCSNFLCDLKPGAEVKLTGPVGKEMLMPKDPNATIIMLGTGTGIAPFRSFLWKMFFEKHDDYKFNGLAWLFLGVPTSSSLLYKEEFEKMKEKAPDNFRLDFAVSREQTNEKGEKMYIQTRMAQYAVELWEMLKKDNTYFYMCGLKGMEKGIDDIMVSLAAAEGIDWIEYKRQLKKAEQWNVEVY
On to B2, for which, in data set [5], the N-demethylase activity result is “Ndm did not couple with ferredoxin reductase plus ferredoxin from spinach”.
